Results on six compounds are retold here after PMC5748279, “Novel Antitubercular 6-Dialkylaminopyrimidine Carboxamides from Phenotypic Whole-Cell High Throughput Screening of a SoftFocus Library: Structure–Activity Relationship and Target Identification Studies” (Journal of Medicinal Chemistry, 2017).

Like-named read-outs stand apart in the source and are kept apart here. A value given as a limit tells only on which side of the number the result lay.

Assay [1] deals with 13-resistant mutant of Mtb H37Rv. Format: cell-based, Mycobacterium tuberculosis.
In another assay the target is (UniProt A0A0H3M9R5). In words: biochemical. Format: binding, Mycobacterium bovis BCG.
The target of another assay is (UniProt A0A0H3MB87). Kind of assay: biochemical. Format: binding, Mycobacterium bovis BCG.
In another assay the target is (UniProt A0A0H3MC72). Kind of assay: biochemical. In kind it is binding, Mycobacterium bovis BCG.
The next assay addresses (UniProt A0A0H3MFG4). Kind of assay: biochemical. In kind it is binding, Mycobacterium bovis BCG.

Sequence of (UniProt A0A0H3MB87) (A0A0H3MB87 1-463): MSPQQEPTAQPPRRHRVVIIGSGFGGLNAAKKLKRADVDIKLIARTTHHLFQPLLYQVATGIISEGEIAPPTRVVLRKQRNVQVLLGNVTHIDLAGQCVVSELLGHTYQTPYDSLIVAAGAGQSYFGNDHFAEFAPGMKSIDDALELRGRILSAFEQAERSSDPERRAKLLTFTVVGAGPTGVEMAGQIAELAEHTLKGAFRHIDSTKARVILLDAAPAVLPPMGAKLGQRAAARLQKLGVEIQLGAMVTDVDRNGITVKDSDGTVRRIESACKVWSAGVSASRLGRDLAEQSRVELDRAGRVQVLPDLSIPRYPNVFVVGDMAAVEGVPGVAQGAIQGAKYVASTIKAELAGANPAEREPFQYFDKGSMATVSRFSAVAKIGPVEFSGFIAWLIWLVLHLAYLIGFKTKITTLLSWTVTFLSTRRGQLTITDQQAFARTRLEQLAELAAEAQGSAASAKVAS
Sequence of (UniProt A0A0H3M9R5) (A0A0H3M9R5 1-518): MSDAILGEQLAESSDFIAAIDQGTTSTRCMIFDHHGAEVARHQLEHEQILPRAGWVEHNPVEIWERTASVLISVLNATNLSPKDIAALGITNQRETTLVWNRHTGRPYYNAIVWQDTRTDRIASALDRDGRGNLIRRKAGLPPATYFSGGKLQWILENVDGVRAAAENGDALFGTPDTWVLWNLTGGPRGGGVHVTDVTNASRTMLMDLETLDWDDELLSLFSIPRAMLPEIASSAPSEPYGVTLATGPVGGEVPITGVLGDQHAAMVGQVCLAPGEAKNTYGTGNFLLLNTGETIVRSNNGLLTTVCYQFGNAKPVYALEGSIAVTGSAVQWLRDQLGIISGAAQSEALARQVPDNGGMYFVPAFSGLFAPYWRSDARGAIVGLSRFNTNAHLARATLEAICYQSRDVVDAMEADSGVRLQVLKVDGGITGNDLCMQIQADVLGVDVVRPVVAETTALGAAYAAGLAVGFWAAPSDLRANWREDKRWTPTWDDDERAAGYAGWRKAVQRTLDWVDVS
Sequence of (UniProt A0A0H3MFG4) (A0A0H3MFG4 1-834): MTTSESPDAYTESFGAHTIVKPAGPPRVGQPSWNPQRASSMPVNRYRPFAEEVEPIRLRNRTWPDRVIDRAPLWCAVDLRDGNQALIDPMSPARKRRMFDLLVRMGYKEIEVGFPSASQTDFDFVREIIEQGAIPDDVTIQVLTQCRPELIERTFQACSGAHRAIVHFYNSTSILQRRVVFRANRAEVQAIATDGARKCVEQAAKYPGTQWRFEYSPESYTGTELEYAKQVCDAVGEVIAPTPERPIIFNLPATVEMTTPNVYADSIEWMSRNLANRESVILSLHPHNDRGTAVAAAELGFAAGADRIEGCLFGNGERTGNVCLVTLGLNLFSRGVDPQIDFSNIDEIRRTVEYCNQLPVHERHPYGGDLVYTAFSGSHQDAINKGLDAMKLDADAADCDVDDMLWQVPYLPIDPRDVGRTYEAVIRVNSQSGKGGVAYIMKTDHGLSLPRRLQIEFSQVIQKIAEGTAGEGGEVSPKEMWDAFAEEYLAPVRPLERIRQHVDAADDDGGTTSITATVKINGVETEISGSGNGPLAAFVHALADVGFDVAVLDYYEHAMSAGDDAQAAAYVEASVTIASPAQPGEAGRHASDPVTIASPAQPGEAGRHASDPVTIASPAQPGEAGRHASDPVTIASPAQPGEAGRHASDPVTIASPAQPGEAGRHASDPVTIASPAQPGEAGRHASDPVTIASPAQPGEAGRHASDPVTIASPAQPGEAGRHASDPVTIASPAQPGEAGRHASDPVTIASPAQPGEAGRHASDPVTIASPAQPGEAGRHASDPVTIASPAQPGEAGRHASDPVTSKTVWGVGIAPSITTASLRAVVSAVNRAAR
Sequence of (UniProt A0A0H3MC72) (A0A0H3MC72 1-488): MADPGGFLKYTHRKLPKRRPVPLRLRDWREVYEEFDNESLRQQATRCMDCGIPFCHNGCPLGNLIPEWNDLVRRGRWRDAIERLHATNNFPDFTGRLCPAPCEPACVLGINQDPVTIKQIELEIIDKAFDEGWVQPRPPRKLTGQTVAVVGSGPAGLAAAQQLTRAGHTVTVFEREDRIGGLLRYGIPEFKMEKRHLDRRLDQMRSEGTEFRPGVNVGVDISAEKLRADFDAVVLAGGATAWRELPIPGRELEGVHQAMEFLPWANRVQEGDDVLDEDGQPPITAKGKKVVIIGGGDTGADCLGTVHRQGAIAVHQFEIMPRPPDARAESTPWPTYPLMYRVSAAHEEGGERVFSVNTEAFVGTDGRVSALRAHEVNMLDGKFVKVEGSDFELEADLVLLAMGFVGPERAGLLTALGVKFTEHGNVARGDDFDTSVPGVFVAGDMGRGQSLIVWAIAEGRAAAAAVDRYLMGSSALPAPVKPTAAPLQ

Take `CN(Cc1ccc(F)cc1)c1cc(C(=O)Nc2ccccc2)ncn1` [Compound 10, 6-((4-Fluorobenzyl)(methyl)amino)-N-phenylpyrimidine-4-carboxamide]: the “14 day GAST/Fe MIC99 against 13-resistant mutant” value (shortened to “14 day GAST/Fe MIC99”) in assay [1] was above 160 µM.
Still for that read-out and setting: then `CN(Cc1ccc(C(F)(F)F)nc1)c1cc(C(=O)Nc2ccccc2)ncn1` [Compound 20, 6-(Methyl((6-(trifluoromethyl)pyridin-3-yl)methyl)amino)-N-phenylpyrimidine-4-carboxamide], with above 160 µM; and `CC(C)Oc1ccc(NC(=O)c2cc(N(C)Cc3ccc(F)cc3)ncn2)cc1` [Compound 36, 6-((4-Fluorobenzyl)(methyl)amino)-N-(4-isopropoxyphenyl)pyrimidine-4-carboxamide], with above 160 µM.
As to `O=C(Nc1ccccc1)c1ccc(=O)n(Cc2ccc(F)cc2)c1` [Compound 25, 1-(4-Fluorobenzyl)-6-oxo-N-phenyl-1,6-dihydropyridine-3-carboxamide], the IC50 on (UniProt A0A0H3M9R5) (read-out: IC50) was at least 30 µM; at (UniProt A0A0H3M9R5) (read-out: pIC50 (converted)) it was at least 30.2 µM; on (UniProt A0A0H3MB87) (read-out: IC50) it was at least 30 µM; on (UniProt A0A0H3MB87) (read-out: pIC50 (converted)) it was at least 30.2 µM; at (UniProt A0A0H3MC72) (read-out: IC50) it was at least 30 µM; on (UniProt A0A0H3MC72) (read-out: pIC50 (converted)), at least 30.2 µM. Also, the IC50 at (UniProt A0A0H3MFG4) (read-out: IC50) was at least 30 µM; on (UniProt A0A0H3MFG4) (read-out: pIC50 (converted)), at least 30.2 µM.
On to `COc1ccc(NC(=O)c2cc(N(C)Cc3ccccc3)ncn2)cc1` [Compound 1, 6-(Benzyl(methyl)amino)-N-(4-methoxyphenyl)pyrimidine-4-carboxamide], for which the “14 day GAST/Fe MIC99” value in assay [1] was above 160 µM.
As for `COc1ccc(NC(=O)c2cc(N(C)Cc3cccc(F)c3)ncn2)cc1` [Compound 13, 6-((3-Fluorobenzyl)(methyl)amino)-N-(4-methoxyphenyl)pyrimidine-4-carboxamide], the “14 day GAST/Fe MIC99” value in assay [1] is above 160 µM.
